As a reminder, the GI50 is the concentration giving 50% growth inhibition. A word on the TGI: it is the concentration giving total growth inhibition.

Where “and” joins values, the source holds several entries; their conditions need not be identical. Identical values can stand only once.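 Protocol summary: plate cells (96-well), add compound at 5 concentrations, incubate 48 h, interpolate endpoints linearly. GI50: concentration for 50% inhibition of growth. TGI: total growth inhibition.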

Among the test systems are HCT-15 colon; MOLT-4 leukemia; OVCAR-5 ovarian; RXF 393 renal; UACC-62 melanoma; NCI-H226 lung; NCI-H460 lung; SF-268 CNS; U251 CNS; RPMI-8226 leukemia.
Common to all, as to assay: DTP human tumour cell line panel, 48 h

Regarding `CC(C)CCCCCCCCCCCCC(=O)NCC(=O)NC1C(O)C(O)C(Nc2ncnc3nc[nH]c23)OC1C(O)CO` (stereo not drawn), the concentration for 50% growth inhibition (GI50) was 0.00599 µM and 0.0249 µM with HCT-15 colon; 0.005 µM with OVCAR-5 ovarian; under 1e-05 µM with RXF 393 renal; under 1e-05 µM with UACC-62 melanoma. Also, the TGI in the test with HCT-15 colon is 0.896 µM and 1.1 µM; in the test with MOLT-4 leukemia, 0.153 µM and 0.43 µM; with OVCAR-5 ovarian, 0.0171 µM and 0.0695 µM.
With `CC1(C)CCCC(C)(C2CCC3(C)C2C(O)CC2C4(C)CCC(O)C(C)(C)C4CCC23C)O1` (stereo not drawn), the TGI was over 100 µM in the test with HCT-15 colon; over 100 µM in the test on MOLT-4 leukemia; over 100 µM with NCI-H226 lung; over 100 µM in the test with NCI-H460 lung; over 100 µM with OVCAR-5 ovarian; 30.9 µM in the test with RXF 393 renal. Further, the concentration for total growth inhibition (TGI) in the test on SF-268 CNS, in the test on U251 CNS and in the test with UACC-62 melanoma was over 100 µM in each case.
Regarding `COC(=O)[C@@H]1Cc2c([nH]c3ccccc23)[C@H](c2ccccc2)N1`, the total growth inhibition concentration (TGI) with HCT-15 colon was 41.3 µM; in the test on MOLT-4 leukemia it was over 100 µM; in the test on NCI-H226 lung, over 100 µM; with NCI-H460 lung it was over 100 µM; with OVCAR-5 ovarian it was over 100 µM; in the test on SF-268 CNS, over 100 µM. Further, the total growth inhibition concentration (TGI) with U251 CNS and in the test with UACC-62 melanoma was over 100 µM each time.
As for `O=C1/C(=C/c2ccc(Cl)cc2)CNC/C1=C\c1ccc(Cl)cc1`, the TGI in the test with HCT-15 colon was 2.6 µM; in the test with OVCAR-5 ovarian it was 13.4 µM; in the test on RPMI-8226 leukemia, 0.722 µM; with RXF 393 renal, 3 µM and 7.85 µM; in the test with SF-268 CNS it was 3.77 µM; with U251 CNS, 3.67 µM and 1.78 µM. In the test on UACC-62 melanoma, this compound gave a concentration for total growth inhibition (TGI) of over 19.9 µM. Further, the GI50 was 1.64 µM and 3.97 µM with RXF 393 renal; 0.502 µM in the test with U251 CNS.
With `COc1cccc(Nc2nc3ccccc3c3occc23)c1`, the GI50 was 13.2 µM in the test on HCT-15 colon; 25.2 µM with NCI-H460 lung; 14.1 µM in the test with OVCAR-5 ovarian; 15.9 µM with RPMI-8226 leukemia; 4.46 µM in the test on RXF 393 renal; 13.9 µM in the test with SF-268 CNS. Also, the figures for the GI50 in the test with U251 CNS and in the test with UACC-62 melanoma were 9.68 µM and 9.37 µM, respectively. Further, the total growth inhibition concentration (TGI) in the test with HCT-15 colon is over 100 µM; with NCI-H460 lung, over 100 µM; in the test on OVCAR-5 ovarian, 32.9 µM; in the test with RPMI-8226 leukemia, over 100 µM; in the test on RXF 393 renal it was 19.8 µM; in the test on SF-268 CNS it was 34.1 µM. The results for the TGI with U251 CNS and with UACC-62 melanoma were 27.1 µM and 24.6 µM, respectively.
As for `COC(=O)c1cc2c3ccccc3n3c2c(n1)-c1[nH]c2ccccc2c(=O)c1C3`, the GI50 in the test with HCT-15 colon was over 100 µM; with MOLT-4 leukemia it was 5.9 µM; in the test with NCI-H460 lung, over 100 µM; in the test on OVCAR-5 ovarian, over 100 µM; in the test with RXF 393 renal, 16.3 µM; in the test on SF-268 CNS, 29.6 µM. Also, the GI50 in the test with U251 CNS is 15.2 µM; in the test with UACC-62 melanoma, 43.3 µM. Also, the concentration for total growth inhibition (TGI) was over 100 µM in the test with HCT-15 colon; over 100 µM in the test on MOLT-4 leukemia; over 100 µM in the test on NCI-H460 lung; over 100 µM in the test on OVCAR-5 ovarian; 66.9 µM in the test on RXF 393 renal; over 100 µM with SF-268 CNS. For the same compound, the total growth inhibition concentration (TGI) in the test on U251 CNS was 52.3 µM; in the test with UACC-62 melanoma, over 100 µM.
`CC1=CC(C)(C)NN1C1=NS(=O)(=O)c2ccccc2N1C`: the concentration for total growth inhibition (TGI) in the test on HCT-15 colon, in the test on MOLT-4 leukemia, with NCI-H226 lung, in the test with NCI-H460 lung, in the test on OVCAR-5 ovarian and in the test with RXF 393 renal was over 100 µM throughout. In addition, the TGI in the test with SF-268 CNS, in the test with U251 CNS and with UACC-62 melanoma was over 100 µM in each case.
In the case of `CNS(=O)(=O)NNS(=O)(=O)c1ccc(OC)cc1`, the total growth inhibition concentration (TGI) in the test with HCT-15 colon, with MOLT-4 leukemia, with NCI-H460 lung, with RPMI-8226 leukemia, in the test with RXF 393 renal and with SF-268 CNS was over 100 µM in each case. Moreover, the TGI in the test on U251 CNS and with UACC-62 melanoma was over 100 µM throughout.
As to `C/C=C1\CN2CCc3c([nH]c4ccccc34)C2CC1CCO` (stereo not drawn), the TGI with HCT-15 colon, in the test on MOLT-4 leukemia, in the test with NCI-H226 lung, in the test with NCI-H460 lung, in the test on OVCAR-5 ovarian and in the test on RXF 393 renal was over 100 µM each time. Besides, the TGI in the test with SF-268 CNS and with U251 CNS was over 100 µM throughout.
Turning to `Clc1cccc(C2N3CCCCC3[C@@H]3c4[nH]c5ccccc5c4CCN23)c1` (stereo partly drawn), the TGI in the test with HCT-15 colon was over 100 µM; in the test with MOLT-4 leukemia it was 60.5 µM; in the test with NCI-H460 lung it was 46.1 µM; with OVCAR-5 ovarian, 55.5 µM; in the test with RPMI-8226 leukemia, 81.8 µM; in the test on RXF 393 renal, 47.5 µM. The TGI with SF-268 CNS was over 100 µM; in the test on U251 CNS, 73.5 µM; in the test on UACC-62 melanoma, 30.7 µM.
With `O=C1C2C3CC(C4C5C=CC(C5)C34)C2C2C3CC(C12)C1C2C=CC(C2)C31` (stereo not drawn), the concentration for total growth inhibition (TGI) in the test with HCT-15 colon, in the test with MOLT-4 leukemia, in the test on NCI-H226 lung, in the test with NCI-H460 lung, with OVCAR-5 ovarian and in the test with RXF 393 renal was over 100 µM each time. The TGI in the test on SF-268 CNS, with U251 CNS and in the test with UACC-62 melanoma was over 100 µM throughout.
With `CCOP(=O)(OCC)C(C(=O)OC)C(=O)C(=O)Nc1cccc(O)c1` (stereo not drawn), the TGI with HCT-15 colon, with MOLT-4 leukemia, in the test on NCI-H226 lung, with NCI-H460 lung, with OVCAR-5 ovarian and with RXF 393 renal was over 100 µM each time. The concentration for total growth inhibition (TGI) with SF-268 CNS, with U251 CNS and with UACC-62 melanoma was over 100 µM throughout.
`O=C(O)C1[O][Sb][O]C(C(=O)O)C1O` (stereo not drawn): the GI50 in the test with HCT-15 colon, in the test on MOLT-4 leukemia, in the test with NCI-H226 lung, with NCI-H460 lung, with OVCAR-5 ovarian and with RXF 393 renal was over 100 µM throughout. The GI50 with SF-268 CNS, with U251 CNS and in the test on UACC-62 melanoma was over 100 µM each time. Besides, the TGI with HCT-15 colon, in the test with MOLT-4 leukemia, with NCI-H226 lung, with NCI-H460 lung, in the test with OVCAR-5 ovarian and in the test with RXF 393 renal was over 100 µM throughout. Besides, the concentration for total growth inhibition (TGI) in the test with SF-268 CNS, in the test with U251 CNS and with UACC-62 melanoma was over 100 µM each time.
As to `Nc1c(Cl)ncnc1NCCCCCCCCCCCCNc1ncnc(Cl)c1N`, the TGI was over 100 µM with HCT-15 colon; 10.1 µM in the test on NCI-H460 lung; over 100 µM in the test on OVCAR-5 ovarian; 5.74 µM in the test on RPMI-8226 leukemia; 8.01 µM with RXF 393 renal; over 100 µM in the test with SF-268 CNS. Further, the TGI with U251 CNS worked out at 4.64 µM; in the test with UACC-62 melanoma, 13.6 µM.
Take `COc1ccc(S(=O)(=O)N(CC(=O)O)c2ccccc2)cc1`: the total growth inhibition concentration (TGI) in the test on HCT-15 colon, with MOLT-4 leukemia, in the test with NCI-H460 lung, in the test with OVCAR-5 ovarian, with RPMI-8226 leukemia and in the test with RXF 393 renal was over 100 µM each time. Moreover, the TGI with SF-268 CNS, in the test with U251 CNS and in the test with UACC-62 melanoma was over 100 µM in each case.
On to `COc1ccc([C@@]23Oc4cc(OC)cc(OC)c4[C@]2(O)[C@H](O)[C@H](C(N)=O)[C@H]3c2ccccc2)cc1`, for which the GI50 was 0.0177 µM in the test on HCT-15 colon, under 0.0115 µM with RXF 393 renal, under 0.0113 µM with SF-268 CNS and under 0.016 µM in the test with UACC-62 melanoma. Further, the TGI was 0.33 µM and 0.229 µM in the test on HCT-15 colon; over 100 µM in the test on MOLT-4 leukemia; 0.0935 µM and < 0.0283 µM with NCI-H226 lung; 0.19 µM with NCI-H460 lung; 0.074 µM and < 0.0291 µM with OVCAR-5 ovarian; 0.0472 µM and 0.0136 µM in the test on RXF 393 renal. For the same compound, the concentration for total growth inhibition (TGI) is 0.0913 µM and < 0.01 µM with SF-268 CNS; 0.612 µM and 0.194 µM in the test on U251 CNS; 0.106 µM with UACC-62 melanoma.
Regarding `O=C1c2ccccc2-c2c1c1ccccc1c(=O)n2CCCNCCn1c2c(c3ccccc3c1=O)C(=O)c1ccccc1-2`, the GI50 in the test with HCT-15 colon was 2.74 µM; with NCI-H226 lung, 4.59 µM; in the test on NCI-H460 lung, 3.02 µM; with OVCAR-5 ovarian, 14.9 µM; in the test on RXF 393 renal, 2.29 µM; in the test with SF-268 CNS, 7.6 µM. The GI50 is 1.61 µM in the test on U251 CNS and 5.04 µM in the test on UACC-62 melanoma. The TGI was determined as 13 µM in the test with HCT-15 colon; 20.7 µM with NCI-H226 lung; 17.6 µM in the test on NCI-H460 lung; 28.1 µM with OVCAR-5 ovarian; 13.9 µM in the test with RXF 393 renal; 26.5 µM with SF-268 CNS. For the same compound, the values for the concentration for total growth inhibition (TGI) in the test on U251 CNS and in the test on UACC-62 melanoma were 3.29 µM and 19.3 µM, respectively.
As for `COc1ccc(OC)c(/C=N/N=C(\N)NO)c1`, the total growth inhibition concentration (TGI) with HCT-15 colon, in the test with NCI-H226 lung, in the test on NCI-H460 lung, with OVCAR-5 ovarian, in the test on RXF 393 renal and in the test with SF-268 CNS was over 100 µM throughout. In addition, the TGI in the test with U251 CNS was over 100 µM; with UACC-62 melanoma, 26.9 µM.
On to `O=C(/C=C/c1cccc([N+](=O)[O-])c1)c1ccc([N+](=O)[O-])cc1`, for which the total growth inhibition concentration (TGI) in the test with HCT-15 colon, in the test with MOLT-4 leukemia, with NCI-H226 lung, with NCI-H460 lung, in the test on OVCAR-5 ovarian and in the test on RXF 393 renal was over 100 µM throughout. Besides, the TGI in the test with SF-268 CNS, in the test with U251 CNS and in the test on UACC-62 melanoma was over 100 µM throughout.

(Values after PubChem BioAssay (NCI).)
